One compound from patent publication US6548053B1, “Control of intra-ocular pressure” (The University of Birmingham, priority 1999, dated 2003) can be followed below.

What all share (format): in vivo, human
Series [1] is described as follows: Clinical study: systolic and diastolic blood pressure and serum electrolytes. The following applies: throughout the study, 100 mg orally three times a day for seven days. The protocol: (§1) A clinical study was undertaken to assess the functional significance of 11β-HSD within the eye by oral administration of carbenoxolone, a known inhibitor of both 11β-HSD1 and 11β-HSD2. The study was undertaken on eight healthy male volunteers who were not on any systemic or topical medications and had no family history of glaucoma. Baseline intra-ocular pressure readings were measured using the same Goldmann applanation tonometer at 08:00, 12:00, 16:00 and 20:00 hours on two consecutive days. Systolic and diastolic blood pressures were also measured at each time point. Venous blood was analysed for serum electrolytes on day one and urine was collected for 24-hour urinary free cortisol and GC/MS for cortisol/cortisone ratios. The subjects then commenced a course of 100 mg carbenoxolone taken orally three times a day for seven consecutive days. The IOP measurements and blood pressure recordings were repeated at each time point on the third and seventh day of carbenoxolone ingestion (i.e. days five and nine of the study). Urea and electrolytes were also measured on these days and inhibition of 11β-HSD was confirmed by comparing the original urinary F/E ratio with that from urine aliquoted from a further 24-hour collection performed between days six and seven of ingestion.
There was no difference between each eye of each subject. […]

The test system of series [2] is healthy male volunteers. In words: Clinical study: intra-ocular pressure (Goldmann applanation tonometer) under oral carbenoxolone. The conditions noted are these: for reduction in IOP during the day (08:00 to 20:00 hrs): baseline reduction 0.38±1.16; for reduction in IOP during the day (08:00 to 20:00 hrs), percent: baseline 2.51%; for IOP of one subject vs days 1 and 2 (FIG. 3): both eyes. The protocol:
as §1, with “ingestion. […] There was no difference between each eye of each subject. The IOP was lower on day seven of ingestion (11.50±2.08) than on day three (12.48±1.48) compared with the mean baseline values (p<0.0001 for both days), the difference between days three and seven being significant (p<0.001). There was also a small reduction in intra-ocular pressure during the course of the day, i.e. from 08:00 hrs to 20:00 hrs (baseline reduction of0.38±1.16 (2.51%), p=0.076).” for “ingestion.”

The test system of series [3] is 11β-HSD. Put plainly: Clinical study: urinary free cortisol and GC/MS urinary steroid ratios confirming inhibition of 11β-HSD. The procedure:
as §1, with “ingestion. […] In addition, there was a significant decrease in the tetrahydrocortisol (THF)+allo-THF/tetrahydrocortisone (THE) ratio (pre-THF+allo-THF/THE=0.92±0.23, per-THF+allo-THF/THE=0.7±0.19, p=0.0012). This reflects the relative 11β-HSD1/HSD2 activities predominantly in the liver.” for “ingestion.”

Regarding `CC1(C)[C@@H](OC(=O)CCC(=O)O)CC[C@]2(C)[C@H]3C(=O)C=C4[C@@H]5C[C@@](C)(C(=O)O)CC[C@]5(C)CC[C@@]4(C)[C@]3(C)CC[C@@H]12` [carbenoxolone], the serum electrolytes result in series [1] is listed as “remained stable”. Besides, the “systolic and diastolic blood pressures” value in series [1] is “remained stable”. In addition, the “reduction in IOP during the day (08:00 to 20:00 hrs)” value in series [2] (day seven of ingestion, p=0.0006) came out at 2.25±1.91; in series [2] (day three of ingestion, p=0.0058), 0.86±0.83. Moreover, the “reduction in IOP during the day (08:00 to 20:00 hrs), percent” value in series [2] (day seven of ingestion) amounted to 17.31%; in series [2] (day three of ingestion) it was 6.51%. Also, the “per-IOP (mean IOP on ingesting carbenoxolone)” value in series [2] (eight subjects, 100 mg orally three times a day, pre-IOP 14.7±1.39) worked out at 12.00±1.87. Besides, in series [2] (eight subjects, day seven of ingestion (study day 9), p<0.0001 vs mean baseline), the “IOP on day seven of ingestion” value is recorded as 11.50±2.08. In addition, the “IOP on day three of ingestion” value in series [2] (eight subjects, day three of ingestion (study day 5), p<0.0001 vs mean baseline) is recorded as 12.48±1.48. Besides, the “subjects showing a decrease in IOP” value in series [2] (eight subjects, drop significant in seven individuals (<0.01)) is “All eight subjects showed a decrease in IOP”. Moreover, the “overall reduction in IOP” value in series [2] (mean of eight subjects, 100 mg orally three times a day for seven days, vs pre-IOP 14.7±1.39, p<0.000001) worked out at 18.2%. For the same compound, the “IOP of one subject vs days 1 and 2 (FIG. 3)” value is recorded as “generally lower” in series [2] (day 5 (third day of ingestion)) and “even lower” in series [2] (day 9 (seventh day of ingestion)). Moreover, in series [3] (24-hour urine between days six and seven of ingestion vs baseline), the “24-hour urinary free cortisol” value is “no significant change”. Further, the “per-F/E (urinary cortisol/cortisone ratio by GC/MS)” value in series [3] (24-hour urine between days six and seven of ingestion, pre-F/E 0.497±0.189, p=0.004) turned out to be 1.144±0.382. In series [3] (urine on ingestion, pre value 0.92±0.23, p=0.0012), the “per-THF+allo-THF/THE ratio” value was 0.7±0.19.
